Assay results taken from patent US20090142363A1, “CYTOTOXIC T-CELL EPITOPE PEPTIDE AND USE THEREOF” (priority 2005, published 2009).
No end group written: not given here.

Key:
[1] = system: CTL line induced by TYF (PBMCs from ID*24-8); test: Cross-reactivity of the TYF-induced CTL line to the subgroup C-specific CTL epitope; assay type: cell-based, human
Description: As shown in FIG. 11-4, there are amino acid mutations at the fourth and sixth positions in TYF identified in the present invention as compared to the subgroup C-specific CTL epitopes. Thus, the cross-reactivity to subgroup C-specific CTL epitope ([…] (SEQ ID NO: 14); mutated amino acids are underlined) (Leen A M, Sili U, Vanin E F, Jewell A M, Xie W, Vignali D, Piedra P A, Brenner M K, Rooney C M. Conserved CTL epitopes on the adenovirus hexon protein expand subgroup cross-reactive and subgroup-specific CD8+ T cells. Blood. 104:2432-2440 (2004)) was examined using a CTL line induced by TYF.
PBMCs prepared from ID*24-8 were stimulated with TYF for 13 days, and then restimulated with TYF or […] (SEQ ID NO: 14) to examine whether the CTL line produces IFNγ.

[2] = system: peripheral blood / PBMCs / peptide-induced CTL lines of HLA-A*24 donors; test: Staining of peripheral blood, PBMCs or peptide-induced CTL lines with MHC-tetramer reagents; assay type: cell-based, human; design: positive rate: CD8-positive, MHC-tetramer reagent-positive cells to viable cells: concentration or dose not given beside the values; settings: for MHC-tetramer reagent-positive cells (UL and UR) in IFNγ / tetramer plot, almost none producing IFNγ: HIV peptide added, TYF: donor ID*24-8, VYS: donor ID*24-2; for increase of the positive rate from day 0 to day 10: donor ID*24-8, ten days of culture with the peptide; for amount of specific CTLs (CD8 / MHC-tetramer reagent-positive): TYF: donor ID*24-8, 10 days stimulation, VYS: donor ID*24-2, 27 days
Procedure: MBL Co. where the present inventors are affiliated with has acquired exclusive patent licensing rights in Japan for MHC-tetramer reagents (U.S. Pat. No. 5,635,363; French Application No. FR9911133; and U.S. Pat. Nos. 5,723,584, 5,874,239, 5,932,433, and 6,265,552) from Beckman Coulter Co. Based on the patents, PE-labeled MHC-tetramer reagents were prepared using adenovirus-specific CTL epitope peptides and HLA-A*2402 molecules.
Adenovirus-specific CTLs quantification was carried out using MHC-tetramer reagents that was prepared using CTL epitope peptides of the present invention, with peripheral blood, PBMCs isolated from peripheral blood, CTL lines induced using CTL epitope peptides as samples. Examples of quantification using PE-labeled MHC-tetramer reagents are described below. Labelling dyes may be used in an appropriate combination depending on the type of flow cytometer to be used, and is not limited to the examples described below.
Ten μl of a PE-labeled MHC-tetramer reagent, 20 μl of an FITC-labeled antibody for T cell (for example, CD8, CD4, or CD3), and such were added to 200 μl of collected peripheral blood. A CD45 antibody labeled with PC5 or such may also be added to eliminate nonspecific fluorescence due to contaminated erythrocytes. After gentle mixing, the mixture was allowed to stand at room temperature for 30 minutes. OptiLyse B was added, and erythrolysis and fixation was carried out according to the manufacturer's protocol. Two ml of PBS was added, stirred, and the cells were centrifuged at 400×g for 5 minutes. After the supernatant was removed by aspiration, the cells were resuspended in 500 μl of PBS and analyzed using a flow cytometer within 24 hours.
Ten μl of a PE-labeled MHC-tetramer reagent, 20 μl of an FITC-labeled T cell surface antibody (for example, CD8, CD4, or CD3), and such were added to an appropriate amount of PBMCs (10^5 to 10^6 cells) or a CTL line induced by use of CTL epitope peptides. A CD45 antibody labeled with PC5 or such may also be added to eliminate nonspecific fluorescence due to contaminated erythrocytes. After gentle mixing, the cells were allowed to stand at room temperature for 30 minutes. Three ml of PBS was added, stirred, and the cells were centrifuged at 400×g for 5 minutes. After the supernatant was removed by aspiration, the cells were resuspended in 500 μl of PBS. When a CTL line is used, 7-AAD Viability Dye (Non-viable cell detection reagent; MBL Co.) may be added to eliminate nonspecific fluorescence caused by non-viable cells. The cells were analyzed using a flow cytometer within 24 hours.
The results of staining obtained using the five types of MHC-tetramer reagents used to prepare the peptide-induced CTL lines are shown in FIG. 5.

[3] = donor ID*24-8, PBMCs cultured with the epitope peptide for 10 days (day 10)
[4] = donor ID*24-8, immediately after blood collection (day 0)
[5] = restimulation with the specific peptide

Row | Sequence | cross-reactivity to subgroup C [1] | IFNγ production of the CTL line induced by TYF on restimulation with the named peptide ([1]; PBMCs from ID*24-8 stimulated with TYF for 13 days) | CD8-positive and TYF-Tet-positive cells ([1]; PBMCs from ID*24-8 stimulated with TYF for 13 days, restimulated with the named peptide) [%] | MHC-tetramer reagent-positive cells (UL and UR) in IFNγ / tetramer plot, almost none producing IFNγ [2] [%] | positive rate: CD8-positive, MHC-tetramer reagent-positive cells to viable cells [2, 3] [%] | positive rate: CD8-positive, MHC-tetramer reagent-positive cells to viable cells [2, 4] [%] | increase of the positive rate from day 0 to day 10 [2] [times] | amount of specific CTLs (CD8 / MHC-tetramer reagent-positive) ([2]; restimulation with HIV peptide) [%] | amount of specific CTLs (CD8 / MHC-tetramer reagent-positive) [2, 5] [%]
1 | TYFNLGNKF [TYF] | no cross-reactivity | produced IFNγ in a TYF-specific manner | 1.22 | 1.76 | 1.53 | 0.01 | 153 | 1.67 | 0.80
2 | VYSGSIPYL |  |  |  | 8.24 | 0.15 | 0.01 | 15 | 8.33 | 5.07
